± gives the standard deviation of the averaged measurements.
Tests used:
Experiment in all cases: level (log10 ratio to DMSO vehicle control); higher = higher biomarker level / cell amount than vehicle control
Conditions in all cases: in DMSO
[1] = compound: C=CC(=O)OCCC(F)(F)C(F)(F)C(F)(F)C(F)(F)F [2-(Perfluorobutyl)ethyl acrylate]
Protocol: (§1)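 BioMAP Diversity Plus panel of 12 human primary cell co-culture systems (3C, 4H, LPS, SAg, BT, BF4T, BE3C, CASM3C, HDF3CGF, KF3CT, MyoF, Mphg). Compounds were added 1 h before stimulation and left for 24 h (MyoF 48 h; BT 72 h for soluble read-outs or 6 d for IgG). Biomarkers were read by ELISA, cytotoxicity by SRB, PBMC viability and proliferation by Alamar Blue. Each well value was divided by the mean of 8 DMSO control wells on the same plate and log10 transformed; duplicate blinded samples were tested at 4 concentrations.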

Azathioprine = compound: Cn1cnc([N+](=O)[O-])c1Sc1ncnc2[nH]cnc12 [Azathioprine]
Protocol: as §1

Perfluorooctanamidine = compound: N=C(N)C(F)(F)C(F)(F)C(F)(F)C(F)(F)C(F)(F)C(F)(F)C(F)(F)F [Perfluorooctanamidine]
Protocol: as §1

[2] = compound: O=C(O)C(F)(F)C(F)(F)C(F)(F)C(F)(F)C(F)(F)C(F)(F)C(F)(F)C(F)(F)C(F)(F)C(F)(F)C(F)(F)C(F)(F)C(F)(F)F [Perfluorotetradecanoic acid]
Protocol: as §1

[3] = compound: O=C(O)C(F)(F)C(F)(F)C(F)(F)C(F)(F)C(F)(F)C(F)(F)C(F)(F)C(F)(F)Cl [9-Chloro-perfluorononanoic acid]
Protocol: as §1

[4] = compound: O=S(=O)(O)C(F)(F)C(F)(F)C(F)(F)C(F)(F)F [Perfluorobutanesulfonic acid]
Protocol: as §1

[5] = compound: OCC(F)(F)C(F)(F)C(F)(F)C(F)(F)C(F)(F)C(F)F [1H,1H,7H-Dodecafluoro-1-heptanol]
Protocol: as §1

Row | Test System | level (log10) ([1]; 6700 nM) | level (log10) ([1]; 20000 nM) | level (log10) ([1]; 60000 nM) | level (log10) (Azathioprine; 1400 nM) | level (log10) (Azathioprine; 4200 nM) | level (log10) (Azathioprine; 13000 nM) | level (log10) (Azathioprine; 38000 nM) | level (log10) (Perfluorooctanamidine; 6700 nM) | level (log10) (Perfluorooctanamidine; 20000 nM) | level (log10) (Perfluorooctanamidine; 60000 nM) | level (log10) ([2]; 6700 nM) | level (log10) ([2]; 20000 nM) | level (log10) ([3]; 6700 nM) | level (log10) ([3]; 20000 nM) | level (log10) ([4]; 6700 nM) | level (log10) ([4]; 20000 nM) | level (log10) ([4]; 60000 nM) | level (log10) ([5]; 6700 nM) | level (log10) ([5]; 20000 nM) | level (log10) ([5]; 60000 nM)
1 | LPS:CD141/Thrombomodulin | -0.0365 ± 0.019 | -0.03 ± 0.014 | -0.038 ± 0.021 | 0.046 ± 0.061 | 0.04 ± 0.037 | 0.0455 ± 0.035 | -0.0055 ± 0.067 | -0.0235 ± 0.0078 | -0.0325 ± 0.022 | -0.01 | 0.009 ± 0.1 | -0.002 ± 0.072 | 0.0485 ± 0.033 | 0.064 ± 0.03 | -0.048 ± 0.0085 | -0.0045 ± 0.015 | -0.024 ± 0.031 | 0.001 ± 0.028 | 0.0005 ± 0.037 | 0.0005 ± 0.042
2 | BE3C:IL-1alpha | -0.0035 ± 0.022 | -0.0305 ± 0.03 | -0.012 ± 0.0057 | -0.012 ± 0.0099 | 0.0045 ± 0.011 | -0.019 ± 0.0085 | -0.031 ± 0.051 | 0.0065 ± 0.026 | 0.002 ± 0.0028 | 0.047 | 0 ± 0.033 | 0.0145 ± 0.005 | 0.023 ± 0.017 | -0.0765 ± 0.026 | -0.0175 ± 0.012 | -0.013 ± 0.0085 | -0.0075 ± 0.012 | 0.0085 ± 0.021 | 0.0045 ± 0.0092 | 0.024 ± 0.0057
3 | SAg:Proliferation | -0.043 ± 0.035 | -0.122 ± 0.035 | -0.372 ± 0.1 | -0.017 ± 0.047 | -0.052 ± 0.035 | -0.172 ± 0.005 | -0.29 ± 0.021 | 0.0195 ± 0.011 | 0 ± 0.048 | -0.565 | -0.038 ± 0.045 | -0.014 ± 0.025 | -0.036 ± 0.033 | 0.02 ± 0.02 | -0.0295 ± 0.11 | -0.0385 ± 0.023 | 0.039 ± 0.017 | -0.003 ± 0.014 | 0.03 ± 0.037 | 0.007 ± 0.018
4 | BF4T:IL-1alpha | -0.0115 ± 0.0078 | -0.0305 ± 0.011 | 0.012 ± 0.038 | -0.0055 ± 0.019 | -0.0015 ± 0.0092 | -0.009 ± 0.0057 | 0.0005 ± 0.033 | -0.003 ± 0.0085 | -0.017 ± 0.0014 | 0.042 | -0.014 ± 0.013 | 0.0235 ± 0.032 | 0.0205 ± 0.0035 | -0.023 ± 0.011 | 0.0135 ± 0.00071 | 0.0135 ± 0.016 | 0.011 ± 0.016 | -0.006 ± 0.024 | -0.006 ± 0.0099 | -0.0085 ± 0.012
5 | BF4T:tPA | 0.0005 ± 0.023 | -0.035 ± 0.023 | -0.0325 ± 0.00071 | 0.005 ± 0.048 | -0.034 ± 0.011 | -0.071 ± 0.023 | -0.0935 ± 0.053 | 0.004 ± 0.014 | -0.027 ± 0.069 | 0.028 | -0.0015 ± 0.019 | 0.0015 ± 0.049 | -0.075 ± 0.0099 | -0.098 ± 0.0099 | -0.0115 ± 0.021 | 0.0025 ± 0.0092 | 0.0115 ± 0.018 | 0.0045 ± 0.0078 | -0.0025 ± 0.00071 | 0.01 ± 0.011
6 | BE3C:CXCL9/MIG | 0.0005 ± 0.005 | -0.0085 ± 0.005 | 0.003 ± 0.0057 | -0.006 ± 0.0085 | 0.0005 ± 0.0035 | -0.0025 ± 0.013 | -0.0015 ± 0.013 | 0.0135 ± 0.018 | 0.0085 ± 0.0092 | 0.037 | -0.016 ± 0.02 | -0.006 ± 0.017 | -0.0015 ± 0.00071 | -0.047 | 0.01 ± 0.034 | 0.0025 ± 0.023 | 0.013 ± 0.0057 | 0.0135 ± 0.0021 | 0.003 ± 0.014 | 0.0115 ± 0.013
7 | LPS:CXCL8/IL-8 | 0.0145 ± 0.015 | 0.0225 ± 0.012 | -0.015 ± 0.054 | 0.035 ± 0.025 | 0.0065 ± 0.013 | 0.0085 ± 0.0092 | -0.049 ± 0.072 | -0.019 ± 0.027 | -0.005 ± 0.016 | -0.028 | 0.0125 ± 0.077 | 0.0255 ± 0.16 | 0.019 ± 0.062 | 0.061 ± 0.048 | 0.0225 ± 0.019 | 0.0125 ± 0.021 | 0.0765 ± 0.00071 | 0.0055 ± 0.029 | 0.0005 ± 0.022 | 0.0025 ± 0.011
8 | BE3C:CD54/ICAM-1 | -0.0045 ± 0.0035 | -0.0175 ± 0.0064 | -0.037 ± 0.03 | 0 ± 0.018 | -0.0115 ± 0.013 | -0.0075 ± 0.0078 | -0.001 ± 0.031 | -0.017 ± 0.0028 | -0.019 ± 0.0057 | 0.027 | -0.003 ± 0.025 | 0.015 ± 0.062 | 0.0145 ± 0.018 | -0.033 ± 0.014 | -0.0185 ± 0.0021 | -0.009 ± 0.0028 | -0.021 ± 0.0057 | 0.0205 ± 0.029 | 0.01 ± 0.027 | 0.0145 ± 0.012
9 | BE3C:CD87/uPAR | 0.014 ± 0.021 | 0.0125 ± 0.025 | -0.018 ± 0.0071 | 0.0185 ± 0.029 | -0.014 ± 0.0042 | -0.0175 ± 0.057 | -0.0435 ± 0.063 | -0.001 ± 0.014 | -0.0035 ± 0.057 | 0.083 | 0.015 ± 0.034 | 0.065 ± 0.05 | 0.0445 ± 0.0021 | -0.0005 ± 0.039 | -0.035 ± 0.0028 | -0.044 ± 0.016 | -0.037 ± 0.027 | 0.018 ± 0.033 | 0.011 ± 0.0028 | 0.013 ± 0.011
10 | BF4T:MMP-3 | -0.008 ± 0.021 | 0.0315 ± 0.052 | 0.0525 ± 0.00071 | 0.01 ± 0.02 | -0.02 ± 0.018 | -0.015 ± 0.0057 | 0.0235 ± 0.052 | 0.0035 ± 0.032 | 0.003 ± 0.055 | 0.148 | 0.027 ± 0.04 | 0.0475 ± 0.066 | 0.0535 ± 0.023 | 0.118 ± 0.035 | 0.014 ± 0.0014 | 0.001 | 0.042 ± 0.033 | -0.01 ± 0.034 | -0.012 ± 0.038 | 0.001 ± 0.04
11 | LPS:sTNF-alpha | -0.009 ± 0.014 | -0.0025 ± 0.018 | -0.0165 ± 0.025 | -0.0135 ± 0.022 | -0.015 ± 0.0099 | -0.035 ± 0.017 | -0.233 ± 0.0078 | -0.0145 ± 0.071 | -0.095 ± 0.17 | -0.08 | -0.009 ± 0.037 | 0.003 ± 0.018 | -0.0115 ± 0.0078 | -0.004 ± 0.014 | 0.002 ± 0.028 | -0.0175 ± 0.023 | -0.0075 ± 0.026 | -0.06 ± 0.028 | -0.04 ± 0.042 | -0.023 ± 0.073
12 | BF4T:PAI-I | -0.006 ± 0.025 | 0.007 ± 0.03 | -0.0255 ± 0.025 | 0.004 ± 0.017 | -0.001 ± 0.0099 | -0.009 ± 0.0014 | -0.005 ± 0.013 | 0.007 ± 0.013 | -0.001 ± 0.03 | 0.03 | 0.014 ± 0.0028 | 0.0245 ± 0.029 | -0.027 ± 0.0042 | -0.052 ± 0.0028 | -0.0075 ± 0.0092 | -0.005 ± 0.0042 | 0.0015 ± 0.005 | 0.0055 ± 0.005 | -0.0035 ± 0.013 | 0.0105 ± 0.013
13 | LPS:CD62E/E-Selectin | 0.0345 ± 0.023 | 0.033 ± 0.0071 | 0.0015 ± 0.04 | 0.0155 ± 0.0035 | 0.0075 ± 0.015 | 0.0145 ± 0.013 | -0.006 | 0.0135 ± 0.00071 | -0.009 ± 0.013 | 0.019 | -0.0035 ± 0.011 | 0.01 ± 0.04 | -0.0095 ± 0.033 | 0.034 ± 0.0057 | 0.007 ± 0.0071 | 0.0255 ± 0.0092 | 0.028 ± 0.023 | 0.0045 ± 0.0064 | -0.005 ± 0.013 | -0.009 ± 0.014
14 | 3C:CXCL8/IL-8 | -0.0155 ± 0.015 | -0.02 ± 0.0085 | 0.003 ± 0.024 | 0.016 ± 0.054 | -0.01 ± 0.011 | -0.026 ± 0.0085 | -0.0455 ± 0.018 | 0.018 ± 0.011 | 0.022 ± 0.0085 | 0.08 | -0.0045 ± 0.032 | 0.0485 ± 0.076 | 0.005 ± 0.037 | 0.0235 ± 0.063 | 0.0045 ± 0.00071 | 0.008 ± 0.021 | 0.071 ± 0.04 | 0.0125 ± 0.032 | 0.0115 ± 0.021 | 0.0265 ± 0.0064
